Reference: patent publication US8148392B2, “2-indolyl imidazo [4,5-d] phenanthroline derivatives and their use in the treatment of cancer” (Lorus Therapeutics Inc., priority 2005, dated 2012)
Read-outs that look alike come from different tables or passages of the source. Blank lines part the entries; values can stand above or below the compound they belong to.

Columns and labels:
[1] = test system: KLF4; test: KLF4 gene expression by RT-PCR, HT-29; format: cell-based, human; details: HT-29, relative to vehicle control as 1
Method: (§1) To determine whether compounds of Formula I can chelate zinc in cells, the effect of compound 3 on the expression level of a zinc-regulated gene, metallothionein 1A (MT1A), in human colon carcinoma HT-29 cells, was determined. HT-29 cells, 1×10^6 cells in 10 mL volume of the growth medium were seeded in 100 mm dishes and incubated overnight at 37° C. The medium was removed and replaced with the growth medium containing 35 μM ZnCl2, 1 μM or 4 μM TPEN (NNNN-tetrakis(2-pyridyl-methyl)ethylenediamine), or 1 μM or 4 μM compound 3, or 0.1% DMSO vehicle control. After incubation for 16 hours, the cells were detached by trypsinization, collected by centrifugation and washed once with PBS. Total RNA was extracted by using TRIZOL (Invitrogen, Life Technologies, Carlsbad, Calif.), following manufacturer's instruction, and the level of MT1A mRNA was measured by real time PCR using the comparative CT method as follows. First strand cDNA was synthesized from 200 ng total RNA in Biometra Tpersonal Thermal Cycler (Abgene, UK), using pd(N)6 random hexamer (Amersham Biosciences, Piscataway, N.J.) and SuperScript™ II Reverse Transcriptase kit (Invitrogen) by following manufacturer's protocol. Real-time PCR was performed in ABI Prism 7000 Sequence Detection System (Applied Biosystems Inc., ABI, Foster City, Calif.), using 5 μL of cDNA synthesized by above-mentioned procedure and respective TaqMan® Gene Expression Assays (ABI) by following ABI TaqMan® Universal PCR master mix protocol.
The ability of compounds of Formula I to modulate the mRNA level of a transition metal-regulated tumour suppressor gene was determined in vitro as follows. Compound 3 was tested to determine its ability to increase the expression of zinc-regulated tumour suppressor KLF4 mRNA in colon carcinoma HT-29 cells. […] HT-29 cells were incubated for 16 hours with DMSO as a vehicle control, 35 μM ZnCl2, 1 μM or 4 μM of compound 3, or 1 μM or 4 μM TPEN for 16 hours and mRNA was extracted from the cells as described in Example 19. The expression of KLF4 mRNA was analyzed by real-time polymerase chain reaction using the comparative CT method also as described in Example 19. Compound 3 induced the expression of KLF4 mRNA (approximately 8-fold) in HT-29 cells compared with HT-29 cells treated with vehicle alone (See FIG. 8).
(§2) Gene expression levels of KLF4, induced by compounds of Formula I, were also examined on various cancer cell types by RT-PCR. Fold changes in KLF4 in compound-treated cells were expressed relative to KLF4 expression in vehicle control-treated cells of respective cell type as “1”. […] Additionally, xenografts of MDA-MB-435 implanted into mammary fat pads of female SCID mice have shown immunohistochemical staining consistent with melanocytic origin (Ellison G, Klinowska T, Westwood R F, Docter E, French T, Fox J C. (2002) Mol Pathol. 55(5): 294-299). The breast cancer cell line MDA-MB-435 may be expected to function differently than the other breast cancer cell lines.
The change in gene expression of KLF4 upon zinc depletion following compound 3 treatment was determined by RT-PCR as follows. HT-29 cells were treated with 1 μM compound 3 for the indicated time (FIG. 39A) or HT-29 cells were treated with 1 μM compound 3, 35 μM ZnCl2 or compund 3 and ZnCl2 together for 16 hr (FIG. 39B). Total RNA was extracted and gene expression level was determined by RT-PCR.
Fold change in KLF4 gene expression was presented relative to KLF4 expression in non-specific siRNA-transfected cells treated with vehicle control.

[2] = test system: KLF4; test: KLF4 gene expression by RT-PCR, HCT-116; format: cell-based, human; details: HCT-116, relative to vehicle control as 1
Source text: as §2

[3] = test system: H-460 lung cancer cells; test: XTT cell proliferation assay, H-460; format: cell-based, human; details: read-out: IC50 (cell growth inhibition)
Method: (§3) Cell growth inhibition IC50 (μM) by compounds of Formula I was tested on various cancer cell types by XTT cell proliferation assay. The growth inhibitory effects of the compounds of Formula I as shown below for the melanoma cell line SK-MEL-2 were reproducible by Lorus Therapeutics Inc.

[4] = test system: KLF4; test: KLF4 gene expression by RT-PCR, H-460; format: cell-based, human; details: H-460, relative to vehicle control as 1
Source text: as §2
Expressions of KLF2, 4 and 6 genes in H-460 cells, treated with vehicle control or 2.5 μM compound 3 or compound 7, were measured by RT-PCR. Gene expression was presented relative to respective gene expression in vehicle control-treated group as “1”.

[5] = test system: HCT-116 colon cancer cells; test: XTT cell proliferation assay, HCT-116; format: cell-based, human; details: read-out: IC50 (cell growth inhibition)
Method: as §3

[6] = test system: KLF4; test: KLF4 gene expression by RT-PCR, MDA-MB-435; format: cell-based, human; details: MDA-MB-435, relative to vehicle control as 1
Source text: as §2

[7] = test system: KLF4; test: KLF4 gene expression by RT-PCR, DU-145; format: cell-based, human; details: DU-145, relative to vehicle control as 1
Source text: as §2

[8] = test system: human colon carcinoma HT-29 cells; test: XTT cell proliferation assay, HT-29; format: cell-based
Outline: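 HT-29 cells in McCoy's 5A with 10% FBS, 37° C., 5% CO2, exposed to varying compound concentrations for 6-7 days. Viable cells quantified by XTT reduction to formazan; growth inhibition expressed as IC50 (μM).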

[9] = test system: DU-145 prostate cancer cells; test: XTT cell proliferation assay, DU-145; format: cell-based, human; details: read-out: IC50 (cell growth inhibition)
Method: as §3

[10] = test system: MOLT-4 leukemia cells; test: XTT cell proliferation assay, MOLT-4; format: cell-based, human; details: read-out: IC50 (cell growth inhibition)
Method: as §3

[11] = test system: PC-3 prostate cancer cells; test: XTT cell proliferation assay, PC-3; format: cell-based, human; details: read-out: IC50 (cell growth inhibition)
Method: as §3

[12] = test system: MDA-MB-231 breast cancer cells; test: XTT cell proliferation assay, MDA-MB-231; format: cell-based, human; details: read-out: IC50 (cell growth inhibition)
Method: as §3

[13] = test system: KLF4; test: KLF4 gene expression by RT-PCR, SK-MEL-2; format: cell-based, human; details: SK-MEL-2, relative to vehicle control as 1
Source text: as §2

[14] = test system: MDA-MB-435 breast cancer cells; test: XTT cell proliferation assay, MDA-MB-435; format: cell-based, human; details: read-out: IC50 (cell growth inhibition)
Method: as §3

[15] = test system: KLF4; test: KLF4 gene expression by RT-PCR, PC-3; format: cell-based, human; details: PC-3, relative to vehicle control as 1
Source text: as §2

[16] = test system: KLF4; test: KLF4 gene expression by RT-PCR, MDA-MB-231; format: cell-based, human; details: MDA-MB-231, relative to vehicle control as 1
Source text: as §2

[17] = test system: SK-MEL-2 melanoma cells; test: XTT cell proliferation assay, SK-MEL-2; format: cell-based, human; details: read-out: IC50 (cell growth inhibition)
Method: as §3

[18] = test system: CCRF-CEM leukemia cells; test: XTT cell proliferation assay, CCRF-CEM; format: cell-based, human; details: read-out: IC50 (cell growth inhibition)
Method: as §3

[19] = test system: KLF4; test: KLF4 gene expression by RT-PCR, CCRF-CEM; format: cell-based, human; details: relative to vehicle control as 1
Source text: as §2

[20] = test system: KLF4; test: KLF4 gene expression by RT-PCR, MOLT-4; format: cell-based, human; details: MOLT-4, relative to vehicle control as 1
Source text: as §2

[21] = test system: intracellular zinc ions in HT-29 cells; test: Chelation of intracellular zinc in HT-29 cells, Zinquin fluorescence; format: cell-based, human; details: HT-29 with or without pre-loading with 35 μM ZnCl2, 30 min
Method: To determine the chelation property of compound 3 with intracellular zinc ions, HT-29 cells, with or without pre-loaded with 35 μM ZnCl2 were treated with compound 3, a known zinc chelator TPEN or vehicle control (DMSO), and intracellular free zinc was determined by measuring Zinquin fluorescence as described in the preceding Example (FIG. 37). HT-29 cells (4×10^5 cells/group) were pre-treated with 35 μM ZnCl2 for 20 min, followed by addition of indicated concentrations of compound 3 or TPEN and 10 μM Zinquin for 30 min at 37° C., and the fluorescence count was measured (FIG. 37A). For measurement of chelation of endogenous zinc ions in HT-29 cells, HT-29 cells (1.5×10^6 cells/group) were treated with indicated concentrations of compound 3 and 10 μM Zinquin for 30 min at 37° C., and the fluorescence count was measured (FIG. 37B).

[22] = test system: metallothionein 1A (MT1A); test: Metallothionein 1A (MT1A) mRNA expression in HT-29 cells, real time PCR; format: cell-based, human; details: HT-29, versus DMSO control, in words
Method: as §1
The effect of compound 3 and compound 7 treatment on the expressions of a zinc-storage protein meallothionein 1A (MT1A) (FIG. 29A), a copper transporter, Ctrl also known as SLC31A1 (FIG. 29B) and an iron transporter; transferrin receptor 1 (TfR1) (FIG. 29C) were measured and compared with a known zinc chelator TPEN, a copper chelator tetramine and an iron chelator DFO, respectively. Despite in vitro chelation of Cu^+2, increase in copper-sensitive gene after compound 3 treatment was transient.
HT-29 cells were treated with 1 μM compound 3 for the indicated time and MT1A gene expression was measured as follows. Total RNA was extracted using TRIZOL method and gene expression level was determined by quantitative reverse-transcription polymerase chain reaction (RT-PCR). MT1A gene expression was normalized with β-actin gene expression in the same sample. Fold change in MT1A was expressed relative to MT1A level of DMSO control at respective time points.
To verify that the MT1A gene expression reflected the intracellular zinc level, HT-29 cells were treated with 1 μM compound 3, 35 μM ZnCl2 or compound 3 and ZnCl2 together for 16 hr (FIG. 38B). MT1A gene expression was determined by RT-PCR as described above. MT1A gene expression was elevated in response to increased intracellular zinc ions in ZnCl2-treated cells.
The ability of compounds of Formula I to modulate gene expression of MT1A (FIG. 55A), MTF-1 (FIG. 55B), Cyclin D1 (FIG. 55C) and KLF4 (FIG. 55D) was determined by RT-PCR. HT-29 cells were treated with 1 μM compound 3 or compound 7, 35 μM ZnCl2, compound 3 and ZnCl2 together, or compound 7 and ZnCl2 together for 8 to 16 hr. The respective gene expression was normalized with β-actin gene expression in the same sample. Fold change in gene expression was expressed relative to the respective gene level of DMSO control.
The effect of compound 3 and compound 64 on gene expression changes in MT1A (FIG. 57A), MTF-1 (FIG. 57B), Cyclin D1 (FIG. 57C) and KLF4 (FIG. 57D) in HT-29 cells was determined by RT-PCR. HT-29 cells were treated with 1 μM compound 3 or compound 64, 35 μM ZnCl2, compound 3 and ZnCl2 together, or compound 64 and ZnCl2 together for 8 to 16 hr. The respective gene expression was normalized with β-actin gene expression in the same sample. Fold change in gene expression was expressed relative to the respective gene level of DMSO control.

- IC50 [3]: 400 nM
- IC50 [5]: 160 nM
- IC50 ([8]; HT-29, XTT, as Example 13, Table 7): 0.2 µg/mL
- IC50 ([8]; HT-29 colon, Table 8, read-out: IC50 (cell growth inhibition)): 200 nM
- IC50 [9]: 400 nM
- IC50 [10]: 200 nM
- IC50 [11]: 340 nM
- IC50 [12]: 3300 nM
- IC50 [14]: 600 nM
- IC50 [17]: 180 nM
- IC50 [18]: 200 nM
SMILES: Cc1ccc2[nH]c(C34CC5CC(CC(C5)C3)C4)c(-c3nc4c5cccnc5c5ncccc5c4[nH]3)c2c1 [Compound 69]
- KLF4 (gene fold increase) [1]: 6.54 fold
- KLF4 (gene fold increase) [2]: 3.11 fold
- KLF4 (gene fold increase) [4]: 1.95 fold
- KLF4 (gene fold increase) [6]: 8.91 fold
- KLF4 (gene fold increase) [7]: 7.46 fold
- KLF4 (gene fold increase) [13]: 4 fold
- KLF4 (gene fold increase) [15]: 0.95 fold
- KLF4 (gene fold increase) [16]: 1.61 fold
- KLF4 (gene fold increase) [19]: 74.29 fold
- KLF4 (gene fold increase) [20]: 276.28 fold

SMILES: c1ccc(CN(CCN(Cc2ccccn2)Cc2ccccn2)Cc2ccccn2)nc1 [TPEN, NNNN-tetrakis(2-pyridyl-methyl)ethylenediamine, reference compound]
- intracellular free zinc (Zinquin fluorescence) [21]: Dose-dependent decrease in both pre-loaded zinc and endogenous zinc levels
- MT1A gene expression, change [22]: decreased the expression of MT1A
